Results on four molecules are retold here after ChEMBL document CHEMBL1131689, “Synthesis and evaluation of geldanamycin-estradiol hybrids” (Bioorg Med Chem Lett, 1999).

What all share (type): functional, cell-based
The nature of assay [1]: Inhibition of steady-state expression of ER in MCF-7 breast cancer cells. Particulars: Homo sapiens, MCF7.
Assay [2] deals with Heat shock protein HSP90 (Homo sapiens, UniProt P07900+P08238). As to the kind of experiment: Inhibition of steady-state expression of Raf-1 in MCF-7 breast cancer cells. Particulars: mcf7.
The nature of assay [3]: Inhibition of steady-state expression of HER2 in MCF-7 breast cancer cells. As to conditions: Homo sapiens, MCF7.

As to `CO[C@@H]1/C=C\C=C(/C)C(=O)NC2=CC(=O)C(NCCC[C@@H]3C[C@H]4[C@@H]5CCc6cc(O)ccc6[C@H]5CC[C@]4(C)[C@H]3O)=C(C[C@H](C)C[C@@H](OC)[C@@H](O)[C@H](C)/C=C(\C)[C@H]1OC(N)=O)C2=O`, the IC50 in assay [1], in assay [2] and in assay [3] was more than 2000 nM in each case.

Turning to `CO[C@@H]1/C=C\C=C(/C)C(=O)NC2=CC(=O)C(NC/C=C/C[C@@H]3C[C@H]4[C@@H]5CCc6cc(O)ccc6[C@H]5CC[C@]4(C)[C@H]3O)=C(C[C@H](C)C[C@@H](OC)[C@@H](O)[C@H](C)/C=C(\C)[C@H]1OC(N)=O)C2=O`, the IC50 worked out at 80 nM in assay [1], 1500 nM in assay [2] and 100 nM in assay [3].

With `CO[C@@H]1/C=C\C=C(/C)C(=O)NC2=CC(=O)C(NCCCC[C@@H]3C[C@H]4[C@@H]5CCc6cc(O)ccc6[C@H]5CC[C@]4(C)[C@H]3O)=C(C[C@H](C)C[C@@H](OC)[C@@H](O)[C@H](C)/C=C(\C)[C@H]1OC(N)=O)C2=O`, the IC50 in assay [1], in assay [2] and in assay [3] was more than 2000 nM in each case.

Turning to `CO[C@@H]1/C=C\C=C(/C)C(=O)NC2=CC(=O)C(NCC#CC[C@@H]3C[C@H]4[C@@H]5CCc6cc(O)ccc6[C@H]5CC[C@]4(C)[C@H]3O)=C(C[C@H](C)C[C@@H](OC)[C@@H](O)[C@H](C)/C=C(\C)[C@H]1OC(N)=O)C2=O`, the half-maximal inhibitory concentration (IC50) is 220 nM in assay [1], 1500 nM in assay [2] and 100 nM in assay [3].

The term IC50 denotes the concentration at which inhibition is half-maximal.
